In patent US9611258B2, “Dual MEK/PI3K inhibitors and therapeutic methods using the same” (THE REGENTS OF THE UNIVERSITY OF MICHIGAN, priority 2013, dated 2017):
Blank lines part the entries; values can stand above or below the molecule they belong to.

Columns and labels:
PI3K = PI3K lipid kinase activity, Adapta TR-FRET assay with purified enzyme; type: biochemical; details: for IC50: read-out: PI3K inhibition IC50
Experimental: (§1) Quantitation of PI3K lipid kinase activity of a present compound is determined with purified enzyme using the fluorescence-based Adapta™ TR-FRET assay from InVitrogen (Wisconsin, USA). Quantitation of MEK1 kinase activity of a present compound is determined with purified enzyme using the LanthaScreen® displacement binding assay (Tracer 236) from InVitrogen (Wisconsin, USA). Cellular screening is carried in cultured Panc-1 cells treated for 1 hour with varied doses of the test compound. Effects on pERK and pAKT expression are evaluated by immunoblotting using phospho-specific antibodies (pAKT [Ser473] and pERK1/2 [Thr202/Tyr204]) from Cell Signaling Technology.
(§2) In Vitro Biochemical and Cell-Based Assays. Detection of PI3K lipid kinase activity was conducted with purified enzyme using the fluorescence-based Adapta™ TR-FRET assay from Invitrogen (Wisconsin, USA). Detection of the MEK1 kinase activity was conducted with purified enzyme using the LanthaScreen® displacement binding assay (Tracer 236) from Invitrogen (Wisconsin, USA). Evaluation of off-target kinase activity was conducted against the kinase screening panel provided by Invitrogen (Wisconsin, USA).

MEK1 = MEK1 (Homo sapiens, UniProt Q02750); assay: MEK1 LanthaScreen displacement binding assay (Tracer 236) with purified enzyme; details: in vitro, read-out: MEK inhibition IC50
MEK1, sequence (Q02750 whole entry, canonical isoform): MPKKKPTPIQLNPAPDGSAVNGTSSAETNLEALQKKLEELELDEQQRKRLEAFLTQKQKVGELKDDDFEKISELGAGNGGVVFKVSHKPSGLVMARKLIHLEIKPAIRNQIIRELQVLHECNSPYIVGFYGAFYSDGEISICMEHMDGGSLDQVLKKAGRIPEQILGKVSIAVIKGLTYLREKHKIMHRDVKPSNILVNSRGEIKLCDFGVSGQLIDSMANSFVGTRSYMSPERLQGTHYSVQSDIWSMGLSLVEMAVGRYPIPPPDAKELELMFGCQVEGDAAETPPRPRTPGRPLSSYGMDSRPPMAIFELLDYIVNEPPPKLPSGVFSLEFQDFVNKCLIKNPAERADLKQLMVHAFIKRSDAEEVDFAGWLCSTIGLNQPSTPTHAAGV

PI3K isoforms = assay: PI3K isoform potency; type: biochemical
Experimental: as §2

AurB = target: T1, AurB (Homo sapiens, UniProt Q96GD4); assay: Off-target kinase selectivity panel (Invitrogen); type: biochemical; details: read-out: IC50 against AurB
T1 construct: purchased Invitrogen
T1 sequence (Q96GD4 whole entry): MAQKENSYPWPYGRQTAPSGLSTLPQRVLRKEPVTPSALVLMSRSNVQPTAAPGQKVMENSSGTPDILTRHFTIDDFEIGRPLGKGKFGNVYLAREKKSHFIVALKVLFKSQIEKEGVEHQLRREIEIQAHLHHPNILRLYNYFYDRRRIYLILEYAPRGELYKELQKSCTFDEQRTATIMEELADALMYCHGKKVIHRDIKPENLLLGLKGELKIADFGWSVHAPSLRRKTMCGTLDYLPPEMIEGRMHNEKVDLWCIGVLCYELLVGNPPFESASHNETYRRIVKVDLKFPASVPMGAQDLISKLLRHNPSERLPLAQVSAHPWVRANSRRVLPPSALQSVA
Experimental: as §2

EGFR = target: T2, EGFR (Homo sapiens, UniProt P00533); assay: Off-target kinase selectivity panel (Invitrogen); type: biochemical; details: read-out: IC50 against EGFR
T2 construct: purchased Invitrogen
T2 sequence (P00533 25-1210): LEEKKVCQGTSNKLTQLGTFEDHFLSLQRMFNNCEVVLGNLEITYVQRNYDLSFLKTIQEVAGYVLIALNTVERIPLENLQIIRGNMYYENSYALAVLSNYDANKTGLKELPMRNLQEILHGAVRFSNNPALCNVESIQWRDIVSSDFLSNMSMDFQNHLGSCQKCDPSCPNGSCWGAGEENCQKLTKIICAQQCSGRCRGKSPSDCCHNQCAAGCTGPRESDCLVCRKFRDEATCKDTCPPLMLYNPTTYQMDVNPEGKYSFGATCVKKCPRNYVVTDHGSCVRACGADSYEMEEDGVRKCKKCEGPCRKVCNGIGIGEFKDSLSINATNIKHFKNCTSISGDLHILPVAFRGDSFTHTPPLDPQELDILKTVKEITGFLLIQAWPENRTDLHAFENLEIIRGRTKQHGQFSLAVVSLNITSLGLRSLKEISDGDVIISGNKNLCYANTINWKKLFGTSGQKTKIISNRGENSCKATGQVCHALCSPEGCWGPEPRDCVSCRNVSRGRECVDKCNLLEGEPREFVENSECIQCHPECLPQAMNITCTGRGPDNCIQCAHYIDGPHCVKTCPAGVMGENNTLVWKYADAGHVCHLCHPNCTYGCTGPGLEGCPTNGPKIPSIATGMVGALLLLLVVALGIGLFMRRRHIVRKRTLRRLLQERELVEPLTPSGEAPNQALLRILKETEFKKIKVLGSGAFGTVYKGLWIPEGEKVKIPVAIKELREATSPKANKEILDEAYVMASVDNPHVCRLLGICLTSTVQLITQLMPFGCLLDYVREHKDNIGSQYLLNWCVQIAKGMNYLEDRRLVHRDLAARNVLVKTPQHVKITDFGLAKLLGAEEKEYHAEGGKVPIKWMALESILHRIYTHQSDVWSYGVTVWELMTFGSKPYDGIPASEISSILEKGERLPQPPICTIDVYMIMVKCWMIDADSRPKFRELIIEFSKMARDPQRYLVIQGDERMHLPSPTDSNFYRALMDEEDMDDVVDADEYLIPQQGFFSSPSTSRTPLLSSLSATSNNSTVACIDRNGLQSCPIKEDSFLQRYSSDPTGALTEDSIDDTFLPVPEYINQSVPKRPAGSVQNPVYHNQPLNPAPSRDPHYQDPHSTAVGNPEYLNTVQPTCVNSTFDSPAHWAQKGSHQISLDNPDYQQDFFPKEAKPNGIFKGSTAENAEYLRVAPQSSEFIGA
Experimental: as §2

ERK = assay: Off-target kinase selectivity panel (Invitrogen); type: biochemical; details: read-out: IC50 against ERK
Experimental: as §2

PKCα = target: T3, PKCα (Homo sapiens, UniProt P17252); assay: Off-target kinase selectivity panel (Invitrogen); type: biochemical; details: read-out: IC50 against PKCα
T3 construct: purchased Invitrogen
Experimental: as §2

pERK1/2 [Thr202/Tyr204] = assay: Cellular pERK expression by immunoblotting in Panc-1 cells; type: cell-based; details: Panc-1 cells treated for 1 hour, immunoblot
Experimental: as §1
(§3) Cells were cultured in Dulbecco's Modified Eagle's Medium (DMEM) and 10% FBS, and grown in a 37° C. incubator with 5% CO2. Cells were plated at 3×10^5 cells/well in 6 well plates, and the following day were treated for 1 hr at 37° C. Cells were lysed in 50 mM Tris, 1% NP-40, 150 mM NaCl, 10% glycerol, 1 mM EDTA with 1× protease inhibitor (complete; Roche Applied Science) and phosphatase inhibitors (PhosSTOP, Roche Applied Science). Protein concentration was determined with a Dc Protein Assay Kit (BioRad). Proteins were resolved by SDS-PAGE and transferred to nitrocellulose membranes. […]

pAKT [Ser473] = assay: Cellular pAKT expression by immunoblotting in Panc-1 cells; type: cell-based; details: Panc-1 cells treated for 1 hour, immunoblot
Experimental: as §1, §3

Compound: FC(F)c1nc2ccccc2n1-c1nc(N2CCNCC2)nc(N2CCOCC2)n1 [MV3-42B]
- IC50 (PI3K; in vitro, purified enzyme): 100 nM

- PI3K inhibition IC50 (PI3K; in vitro, purified enzyme, bound printed without a number): >μM
Compound: O=C(CCCCC[N+](=O)[O-])N1CCN(c2nc(N3CCOCC3)nc(-n3c(C(F)F)nc4ccccc43)n2)CC1 [MV3-44B]

- IC50 (PI3K; in vitro, purified enzyme): < 100 nM
- improvement in PI3K binding affinity (PI3K; nitro group (MV3-44B) converted to amino group): 10 fold
Compound: NCCCCCC(=O)N1CCN(c2nc(N3CCOCC3)nc(-n3c(C(F)F)nc4ccccc43)n2)CC1 [MV3-46A]

Compound: Cc1c(Cc2cccc(N(C)S(=O)(=O)CCCNCCCCCC(=O)N3CCN(c4nc(N5CCOCC5)nc(-n5c(C(F)F)nc6ccccc65)n4)CC3)c2)c(=O)oc2cc(OC(=O)N(C)C)ccc12 [MV3-65A]
- IC50 (PI3K; in vitro, purified enzyme): 370 nM
- IC50 (MEK1): 501 nM
- potency against all of the PI3K isoforms (PI3K isoforms): comparably potent against all of the PI3K isoforms
- IC50 (AurB): > 10000 nM
- IC50 (EGFR): > 10000 nM
- IC50 (ERK): > 10000 nM
- IC50 (PKCα): > 10000 nM
- cellular inhibition of pERK expression (pERK1/2 [Thr202/Tyr204]): cellular inhibition of both pERK and pAKT expression was observed
- cellular inhibition of pAKT expression (pAKT [Ser473]): cellular inhibition of both pERK and pAKT expression was observed
